PubChem BioAssay AID256 (DTP/NCI, 2004)
“And” between values parts separate entries of the source, which are not always exact repeats. Equal values may be shown once. Inconclusive results and toxic doses are left out. The calls were made as follows: active = survival T/C of 150% or more; inactive = T/C below 125% in these data.

System: CD2F1 mice, L1210 leukemia ip, survival T/C
Test: NCI In Vivo Anticancer Drug Screen. Data for tumor model L1210 Leukemia (intraperitoneal) in CD2F1 (CDF1) mice
Settings: higher = longer survival
Summary of the method: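 Transplantable tumor in mice; compound-treated vs vehicle-treated groups. Read-out = treated/control ratio of the measured endpoint.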

[1] = endpoint: mean survival time, dose: 100.0 mg/kg/injection, schedule: Q01DX009 (ip), vehicle: Klucel (hydroxypropylcellulose) (HPC)
[2] = endpoint: mean survival time, dose: 200.0 mg/kg/injection, schedule: Q01DX009 (ip), vehicle: Klucel (hydroxypropylcellulose) (HPC)
[3] = endpoint: mean survival time, dose: 400.0 mg/kg/injection, schedule: Q01DX009 (ip), vehicle: Klucel (hydroxypropylcellulose) (HPC)
[4] = endpoint: mean survival time, dose: 100.0 mg/kg/injection, schedule: Q04DX003 (ip), vehicle: saline with Tween-80
[5] = endpoint: mean survival time, dose: 200.0 mg/kg/injection, schedule: Q04DX003 (ip), vehicle: saline with Tween-80
[6] = endpoint: mean survival time, dose: 400.0 mg/kg/injection, schedule: Q04DX003 (ip), vehicle: saline with Tween-80
[7] = endpoint: mean survival time, dose: 2.5 mg/kg/injection, schedule: Q01DX009 (ip), vehicle: saline with Tween-80
[8] = endpoint: mean survival time, dose: 12.5 mg/kg/injection, schedule: Q01DX009 (ip), vehicle: saline
[9] = endpoint: mean survival time, dose: 100.0 mg/kg/injection, schedule: Q01DX009 (ip), vehicle: saline
[10] = endpoint: mean survival time, dose: 200.0 mg/kg/injection, schedule: Q01DX009 (ip), vehicle: saline
[11] = endpoint: mean survival time, dose: 150.0 mg/kg/injection, schedule: Q01DX001 (ip), vehicle: saline

Measured: T/C

CCOC(=O)C1(C(=O)O)CC2C(C)C=CC(C)C2C1 (stereo not given)
inactive: [1] 100 % of control | [2] 102 % of control | [3] 96 % of control

CS(=O)(=O)OC(C(Br)CBr)C(OS(C)(=O)=O)C(Br)CBr (stereo not given)
inactive: endpoint: mean survival time, dose: 100.0 mg/kg/injection, schedule: Q01DX001 (ip), vehicle: Klucel (hydroxypropylcellulose) (HPC) 87 % of control | endpoint: mean survival time, dose: 200.0 mg/kg/injection, schedule: Q01DX001 (ip), vehicle: Klucel (hydroxypropylcellulose) (HPC) 90 % of control | endpoint: mean survival time, dose: 400.0 mg/kg/injection, schedule: Q01DX001 (ip), vehicle: Klucel (hydroxypropylcellulose) (HPC) 88 % of control

CCCCOC(=O)C(C)OC(=O)Nc1cccc(Cl)c1 (stereo not given)
inactive: [4] 100 % of control | [5] 101 % of control | [6] 97 % of control

O=C1CCCC/C1=N\Nc1ccccc1
inactive: endpoint: mean survival time, dose: 100.0 mg/kg/injection, schedule: Q01DX001 (ip), vehicle: saline 91 % of control | endpoint: mean survival time, dose: 200.0 mg/kg/injection, schedule: Q01DX001 (ip), vehicle: saline 89 % of control | endpoint: mean survival time, dose: 400.0 mg/kg/injection, schedule: Q01DX001 (ip), vehicle: saline 97 % of control

O=C(Cl)c1ccccc1Sc1ccccc1
inactive: [4] 87 % of control

COC(=O)c1ccoc1
inactive: endpoint: median survival time, dose: 12.5 mg/kg/injection, schedule: Q01DX009 (ip), vehicle: saline 98 % of control | endpoint: median survival time, dose: 25.0 mg/kg/injection, schedule: Q01DX009 (ip), vehicle: saline 100 % of control | endpoint: median survival time, dose: 50.0 mg/kg/injection, schedule: Q01DX009 (ip), vehicle: saline 100 % of control | endpoint: median survival time, dose: 100.0 mg/kg/injection, schedule: Q01DX009 (ip), vehicle: saline 104 % of control | endpoint: median survival time, dose: 200.0 mg/kg/injection, schedule: Q01DX009 (ip), vehicle: saline 105 % of control | endpoint: median survival time, dose: 400.0 mg/kg/injection, schedule: Q01DX009 (ip), vehicle: saline 114 % of control

Nc1c(-c2ncc[nH]2)ncn1CC(O)C(O)C(O)CO (stereo not given)
inactive: endpoint: mean survival time, dose: 12.5 mg/kg/injection, schedule: Q01DX005 (ip), vehicle: saline with Tween-80 98 % of control | endpoint: mean survival time, dose: 25.0 mg/kg/injection, schedule: Q01DX005 (ip), vehicle: saline with Tween-80 101 % of control | endpoint: mean survival time, dose: 50.0 mg/kg/injection, schedule: Q01DX005 (ip), vehicle: saline with Tween-80 103 % of control | endpoint: mean survival time, dose: 100.0 mg/kg/injection, schedule: Q01DX005 (ip), vehicle: saline with Tween-80 92 % of control | endpoint: mean survival time, dose: 200.0 mg/kg/injection, schedule: Q01DX005 (ip), vehicle: saline with Tween-80 98 % of control

C[C@H](C[P+](c1ccccc1)(c1ccccc1)c1ccccc1)[C@](OC(=O)c1ccccc1)(C(=O)c1ccccc1)c1ccccc1
inactive: endpoint: mean survival time, dose: 1.25 mg/kg/injection, schedule: Q01DX009 (ip), vehicle: saline with Tween-80 101 % of control | [7] 98 % of control | endpoint: mean survival time, dose: 5.0 mg/kg/injection, schedule: Q01DX001 (ip), vehicle: saline with Tween-80 103 % of control | endpoint: mean survival time, dose: 5.0 mg/kg/injection, schedule: Q01DX009 (ip), vehicle: saline with Tween-80 98 % of control

CCCCCCCCCCCCNC(=O)c1cc[n+](C)cc1
inactive: [8] 95 % of control | endpoint: mean survival time, dose: 12.5 mg/kg/injection, schedule: Q04DX003 (ip), vehicle: saline 98 % of control | endpoint: mean survival time, dose: 25.0 mg/kg/injection, schedule: Q04DX003 (ip), vehicle: saline 95 % of control | endpoint: mean survival time, dose: 50.0 mg/kg/injection, schedule: Q04DX003 (ip), vehicle: saline 94 % of control

CC(C)c1ccc(C(O)C2CC2)cc1 (stereo not given)
inactive: endpoint: mean survival time, dose: 50.0 mg/kg/injection, schedule: Q01DX009 (ip), vehicle: saline 100 % of control | [9] 100 % of control | [10] 96 % of control

NC(=O)c1cn(C2OC(CO)CC2O)c2ncnc(N)c12 (stereo not given)
inactive: endpoint: mean survival time, dose: 0.13 mg/kg/injection, schedule: Q01DX009 (ip), vehicle: water 90 % of control | endpoint: mean survival time, dose: 0.25 mg/kg/injection, schedule: Q01DX009 (ip), vehicle: water 98 % of control | endpoint: mean survival time, dose: 0.5 mg/kg/injection, schedule: Q01DX009 (ip), vehicle: water 96 % of control | endpoint: mean survival time, dose: 1.0 mg/kg/injection, schedule: Q01DX009 (ip), vehicle: water 102 % of control | endpoint: mean survival time, dose: 2.0 mg/kg/injection, schedule: Q01DX009 (ip), vehicle: water 113 % of control | endpoint: mean survival time, dose: 8.0 mg/kg/injection, schedule: Q01DX009 (ip), vehicle: water 110 % of control | endpoint: mean survival time, dose: 32.0 mg/kg/injection, schedule: Q01DX009 (ip), vehicle: water 122 % of control

c1ccc(CSC(SCc2ccccc2)c2ccccc2)cc1
inactive: [1] 86 % of control | [4] 96 % of control | [2] 92 % of control | [5] 100 % of control | [3] 92 % of control | [6] 97 % of control

O=C(Nc1ccccc1C(=O)O)c1cc([N+](=O)[O-])cc([N+](=O)[O-])c1
inactive: endpoint: mean survival time, dose: 12.5 mg/kg/injection, schedule: Q01DX009 (ip), vehicle: saline with Tween-80 95 % of control and 97 % of control | endpoint: mean survival time, dose: 25.0 mg/kg/injection, schedule: Q01DX009 (ip), vehicle: saline with Tween-80 101 % of control and 103 % of control | endpoint: mean survival time, dose: 50.0 mg/kg/injection, schedule: Q01DX009 (ip), vehicle: saline with Tween-80 100 % of control and 101 % of control | endpoint: mean survival time, dose: 100.0 mg/kg/injection, schedule: Q01DX009 (ip), vehicle: saline with Tween-80 95 % of control and 97 % of control | endpoint: mean survival time, dose: 200.0 mg/kg/injection, schedule: Q01DX009 (ip), vehicle: saline with Tween-80 96 % of control

CC(=O)OC1C2(CC3N4C(=O)C5(CO)SSC4(CC31O)C(=O)N5C)OC(C)C(C)(C)C2=O (stereo not given)
inactive: endpoint: mean survival time, dose: 0.15 mg/kg/injection, schedule: Q01DX009 (ip), vehicle: saline 101 % of control | endpoint: mean survival time, dose: 0.16 mg/kg/injection, schedule: Q01DX009 (ip), vehicle: saline with Tween-80 97 % of control | endpoint: mean survival time, dose: 0.31 mg/kg/injection, schedule: Q01DX009 (ip), vehicle: saline with Tween-80 101 % of control | endpoint: mean survival time, dose: 0.31 mg/kg/injection, schedule: Q01DX009 (ip), vehicle: saline 100 % of control | endpoint: mean survival time, dose: 0.62 mg/kg/injection, schedule: Q01DX009 (ip), vehicle: saline 100 % of control | endpoint: mean survival time, dose: 0.63 mg/kg/injection, schedule: Q01DX009 (ip), vehicle: saline with Tween-80 101 % of control | endpoint: mean survival time, dose: 1.25 mg/kg/injection, schedule: Q01DX009 (ip), vehicle: saline 120 % of control and 98 % of control and 100 % of control | [7] 98 % of control | endpoint: mean survival time, dose: 2.5 mg/kg/injection, schedule: Q01DX009 (ip), vehicle: saline 107 % of control

O=C1OCCCC1O (stereo not given)
inactive: [11] 97 % of control

C1CCN(NC2=NCCO2)CC1
inactive: endpoint: mean survival time, dose: 6.25 mg/kg/injection, schedule: Q01DX009 (ip), vehicle: saline 101 % of control | [8] 98 % of control | endpoint: mean survival time, dose: 25.0 mg/kg/injection, schedule: Q01DX009 (ip), vehicle: saline 98 % of control

NC(=O)CC=O
inactive: endpoint: mean survival time, dose: 75.0 mg/kg/injection, schedule: Q01DX001 (ip), vehicle: saline 98 % of control | [11] 93 % of control | endpoint: mean survival time, dose: 300.0 mg/kg/injection, schedule: Q01DX001 (ip), vehicle: saline 95 % of control

Cn1cnc2c(SCc3ccccc3)ncnc21
inactive: [4] 104 % of control | endpoint: mean survival time, dose: 132.0 mg/kg/injection, schedule: Q04DX003 (ip), vehicle: saline with Tween-80 118 % of control | [5] 102 % of control | endpoint: mean survival time, dose: 300.0 mg/kg/injection, schedule: Q04DX003 (ip), vehicle: saline with Tween-80 119 % of control

CCCCCCCCCCCCCCCCCC[n+]1cccc(C(=O)c2ccccc2)c1
inactive: endpoint: mean survival time, dose: 9.38 mg/kg/injection, schedule: Q01DX001 (ip), vehicle: other 100 % of control | endpoint: mean survival time, dose: 18.75 mg/kg/injection, schedule: Q01DX001 (ip), vehicle: other 108 % of control

Oc1cccc2ccccc12
inactive: endpoint: median survival time, dose: 50.0 mg/kg/injection, schedule: Q01DX005 (ip), vehicle: water 95 % of control | endpoint: median survival time, dose: 100.0 mg/kg/injection, schedule: Q01DX005 (ip), vehicle: water 95 % of control | endpoint: median survival time, dose: 200.0 mg/kg/injection, schedule: Q01DX005 (ip), vehicle: water 101 % of control | endpoint: median survival time, dose: 400.0 mg/kg/injection, schedule: Q01DX005 (ip), vehicle: water 93 % of control

COC(=O)C/C(=C/C=C1/C(=O)ON=C1C)c1c(C)[nH]oc1=O
inactive: [9] 87 % of control | endpoint: mean survival time, dose: 100.0 mg/kg/injection, schedule: Q04DX003 (ip), vehicle: saline 101 % of control | [10] 92 % of control | endpoint: mean survival time, dose: 200.0 mg/kg/injection, schedule: Q04DX003 (ip), vehicle: saline 106 % of control | endpoint: mean survival time, dose: 400.0 mg/kg/injection, schedule: Q01DX009 (ip), vehicle: saline 87 % of control | endpoint: mean survival time, dose: 400.0 mg/kg/injection, schedule: Q04DX003 (ip), vehicle: saline 108 % of control
